# Measured values taken from patent US11834413B2, “Antiplatelet drugs and uses thereof” (SHANGHAI CUREGENE PHARMACEUTICAL CO., LTD., priority 2020, dated 2023).
# Legend:
# [1] = Pharmacokinetic in rats: concentration of the thiol active metabolite in plasma; type: in vivo, Male Sprague-Dawley rats; conditions: for peak concentration of the thiol active metabolite compared with clopidogrel: rat plasma; for release of the active metabolite compared with clopidogrel: rat
# Description: Assay 1: Pharmacokinetic in Rats
# Male Sprague-Dawley rats were used to conduct pharmacokinetic experiment.
# Test compounds (clopidogrel and exemplary compounds provided herein) was administrated orally or intravenously to rat under fast condition. Blood samples were collected via jugular vein at 5 min, 15 min, 30 min, 60 min and 120 min time points with EDTA-K2 (anticoagulant), 3′-methoxyphenacyl bromide (MPBr, derivatization reagent) and phenylmethylsulfonyl fluoride (PMSF, stabilizer). Plasma samples were then harvested by centrifuging at 1500 g for 10 min under 2-8° C. and stored at −80° C. after separation. Plasma samples were loaded to a LC-MS/MS instrument after extraction to determine the concentration of the thiol active metabolite.
# [2] = after absorption; cited from earlier work
# platelet aggregation = assay: Antiaggregatory action in rats: ex vivo ADP-induced platelet aggregation in PRP, turbidimetric aggregometry; set-up: species or system Male Sprague-Dawley rats; conditions: rat, oral
# Description: Assay 2: Antiaggregatory Action in Rats
# Male Sprague-Dawley rats were used for ex vivo platelet aggregation experiments. After oral administrated with (clopidogrel, exemplary compounds provided herein and vehicle (control)) to rats, blood was collected via jugular vein at 0.5 hour, 1 hour and 2 hour time points, using 3.8% (w/v) sodium citrate solution as an anticoagulant ( 1/9 volume of whole blood). Blood samples with citrate were centrifuged at a low speed of 1000 rmp for 5 min to obtain platelet-rich plasma (PRP). After separation of PRP, the remained blood was further centrifuged at a high speed of 3000 rmp for 10 min to obtain platelet-poor plasma (PPP). The number of platelets in PRP was measured by hematology analyzer (Siemens, ADVIA2120), and adjusted to 4×10^8/mL with PPP.
# Platelet aggregation was determined using turbidimetric aggregometry method by an automatic platelet aggregometer (PRECIL LBY-NJ4). The aggregometer was primarily warmed up to 37° C., and PRP (290 μL) sample was added to the cuvette and set in the automatic platelet aggregometer. After a 5 min pre-incubation, calibrated the aggregometer using PPP to representing 100% aggregation and PRP to representing 0% aggregation. Finally, a volume of […] ADP solution (final concentration 10 μM) was added to PRP sample to initial platelet aggregation. Platelet aggregation was monitored for 5 min and maximum platelet aggregation (%) was reported within the duration. Antiaggregatory action of test compounds was expressed as inhibition (%) which determined by the relation: Inhibition (%)=(maximum platelet aggregation (%) of control−maximum platelet aggregation (%) of test compound)/(maximum platelet aggregation (%) of control)*100
# [3] = after a loading dose (600 mg); cited from earlier work
structure (smiles),measurement,setting,value
COC(=O)[C@H](c1ccccc1Cl)N1CCC(SCOC(=O)OC(C)C)/C(=C/C(=O)O)C1 (stereo partly drawn) [compound 1a],peak concentration of the thiol active metabolite compared with clopidogrel,"[1]; oral, dose level 10 mg/kg",significantly higher than that for clopidogrel
same,release of the active metabolite compared with clopidogrel,"[1]; oral, dose level 10 mg/kg",faster and more efficient release of the active metabolite than clopidogrel
"COC(=O)[C@H](c1ccccc1Cl)N1CCc2sccc2C1 [clopidogrel, Clopidogrel]",fraction hydrolysed by esterases into an inactive carboxylic acid,[2],85%
same,"fraction undergoing two-step oxidation via hepatic cytochrome P450 isoenzymes, mainly CYP2C19",[2],15%
same,inhibition at 10 mg/kg,"platelet aggregation; Platelet, 10 mg/kg, ADP 10 μM, read-out: maximum inhibition of platelet aggregation",~45%
same,time after administration to maximum inhibition of platelet aggregation,platelet aggregation; 10 mg/kg,about 120 minutes
same,onset of action,[3],2 h
CCOC(=O)/C=C1\CN([C@H](C(=O)OC)c2ccccc2Cl)CCC1SCOC(=O)OC(C)C (stereo partly drawn) [compound 2a],peak concentration of the thiol active metabolite compared with clopidogrel,"[1]; oral, dose level 10 mg/kg",significantly higher than that for clopidogrel
same,release of the active metabolite compared with clopidogrel,"[1]; oral, dose level 10 mg/kg",faster and more efficient release of the active metabolite than clopidogrel
COC(=O)[C@H](c1ccccc1Cl)N1CCC(SCOC(=O)OC(C)C)/C(=C\C(=O)O)C1 (stereo partly drawn) [compound 1b],peak concentration of the thiol active metabolite compared with clopidogrel,"[1]; oral, dose level 10 mg/kg",significantly higher than that for clopidogrel
same,release of the active metabolite compared with clopidogrel,"[1]; oral, dose level 10 mg/kg",faster and more efficient release of the active metabolite than clopidogrel
same,inhibition at 2 mg/kg,"platelet aggregation; Platelet, 2 mg/kg, ADP 10 μM, read-out: maximum inhibition of platelet aggregation",~45%
same,time after administration to maximum inhibition of platelet aggregation,platelet aggregation; 2 mg/kg,60 min
same,onset of action and potency compared with clopidogrel,platelet aggregation; 2 mg/kg vs clopidogrel 10 mg/kg,much faster onset of action and much higher potency than clopidogrel
COC(=O)OCSC1CCN([C@H](C(=O)OC)c2ccccc2Cl)C/C1=C/C(=O)O (stereo partly drawn) [compound 3],release of the active metabolite compared with clopidogrel,[1]; oral 2 mg/kg and intravenous 1 mg/kg vs clopidogrel oral 10 mg/kg,faster and more efficient release of the active metabolite than clopidogrel
